For seven compounds, inhibition and IC50 results are on record in ChEMBL document CHEMBL4007474, “Soluble epoxide hydrolase inhibitors of indolinone alkaloids and phenolic derivatives from Cimicifuga dahurica (Turcz.) Maxim” (Bioorg Med Chem Lett, 2017).

The structures appear in SMILES notation. Calls of active or inactive are those of the source. The rule behind the calls is not given here.

In assay [1] the target is T1, Bifunctional epoxide hydrolase 2 (Homo sapiens) (UniProt P34913).
T1 sequence (whole entry): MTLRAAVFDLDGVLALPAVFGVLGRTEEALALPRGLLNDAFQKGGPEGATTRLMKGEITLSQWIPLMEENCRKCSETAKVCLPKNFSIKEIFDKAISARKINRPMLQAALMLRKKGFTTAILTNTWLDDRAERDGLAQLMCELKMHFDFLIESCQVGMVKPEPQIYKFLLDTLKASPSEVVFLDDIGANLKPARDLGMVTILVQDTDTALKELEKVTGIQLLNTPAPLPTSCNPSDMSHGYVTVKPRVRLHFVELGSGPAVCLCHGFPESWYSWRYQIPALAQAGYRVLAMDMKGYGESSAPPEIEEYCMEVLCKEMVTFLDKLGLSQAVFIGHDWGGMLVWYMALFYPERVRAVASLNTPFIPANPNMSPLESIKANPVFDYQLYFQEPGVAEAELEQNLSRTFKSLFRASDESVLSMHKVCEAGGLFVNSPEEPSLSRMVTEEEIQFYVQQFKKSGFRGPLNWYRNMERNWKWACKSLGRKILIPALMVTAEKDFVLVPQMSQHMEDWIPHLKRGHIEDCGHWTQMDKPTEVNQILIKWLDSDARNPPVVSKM
Nature of the assay: Inhibition of sEH (unknown origin) at 100 uM using PHOME as substrate after 40 mins by fluorescence photometric method relative to control.

The target in assay [2] is T1, Bifunctional epoxide hydrolase 2 (Homo sapiens). Nature of the assay: (§1) Inhibition of sEH (unknown origin) using PHOME as substrate after 40 mins by fluorescence photometric method.
Assay [3] has as its target T2, Bifunctional epoxide hydrolase 2 (Homo sapiens, UniProt P34913).
T2 sequence (P34913 whole entry): T1 sequence (whole entry)
Described as §1.

Assay [4] concerns the target T1, Bifunctional epoxide hydrolase 2 (Homo sapiens). In words: Mixed type inhibition of sEH (unknown origin) at 0.78 to 6.25 uM using PHOME as substrate measured for 30 mins by Lineweaver-burk plot method.
Assay [5] shares this target. Nature of the assay: Competitive inhibition of sEH (unknown origin) at 0.78 to 6.25 uM using PHOME as substrate measured for 30 mins by Lineweaver-burk plot method.
For assay [6] the target is unchanged. The settings on record: 0.78 to 6.25 uM.

Broadly, the inhibition is the relative decrease from the control value, in per cent. The term IC50 denotes the concentration that gives 50% inhibition. A high value points to weaker potency in that assay.

Regarding `COc1ccc(/C=C/C(=O)OCC(=O)c2ccc(O)c(O)c2)cc1O`, the figures for the inhibition in assay [1] and in assay [2] were 98.3% and “Dose-dependent effect”, respectively. The same compound came in with an IC50 in assay [3] of 1600 nM. For the same compound, in assay [4], the inhibition result is “Active”.
Consider `COC(=O)/C=C/c1ccc(O)c(OC)c1`, for which the results for the inhibition in assay [1] and in assay [2] were 99.2% and “Dose-dependent effect”, respectively. Further, the IC50 in assay [3] came out at 1800 nM. Besides, the inhibition entry in assay [4] is “Active”.
As for `CC(C)=C/C=C1/C(=O)N(C)c2ccccc21`, the inhibition in assay [1] is 80.2%; in assay [2], “Dose-dependent effect”. In addition, in assay [3], half-maximal inhibition (IC50) was put at 800 nM. The inhibition entry in assay [5] is “Active”.
In the case of `O=C(/C=C/c1ccc(O)c(O)c1)O[C@@H]1C[C@](O)(C(=O)O)C[C@@H](OC(=O)/C=C/c2ccc(O)c(O)c2)[C@H]1O`, the inhibition in assay [1] is 81.3%; in assay [2] it was “Dose-dependent effect”. In addition, the IC50 in assay [3] was found to be 2800 nM. Also, the inhibition entry in assay [4] was “Active”.
Consider `CC(C)=C/C=C1\C(=O)N(C)c2ccccc21`, for which the inhibition in assay [1] is 77%; in assay [2] it was “Dose-dependent effect”. Further, the IC50 in assay [3] turned out to be 1300 nM. In addition, the inhibition result in assay [5] is “Active”.
In the case of `COc1ccc(/C=C/C(=O)OCC(=O)Cc2ccc(O)c(O)c2)cc1O` [CIMIRACEMATE A], the inhibition was 104% in assay [1] and “Dose-dependent effect” in assay [2]. This compound also came in with an IC50 in assay [3] of 1100 nM. Further, the inhibition entry in assay [6] was “Active”.
As to `CC(C)=C/C=C1/C(=O)Nc2ccccc21`, the inhibition in assay [1] is 95.1%; in assay [2], “Dose-dependent effect”. Moreover, in assay [3], half-maximal inhibition (IC50) was put at 1000 nM. Further, in assay [5], the inhibition entry is “Active”.
